Measurements reported in US20090099094A1, “Use of Somatostatin Agonists to Treat Medullary Thyroid Carcinoma” (priority 2007, published 2009).

Key:
[1] = test system: MTC; details: cited from earlier work; for suppressing calcitonin secretion: MTC, commercially available somatostatin analogs; for reducing tumour size and/or increasing patient survival rate: treatment of MTC patients
[2] = molecular target: SSTR2 (Homo sapiens, UniProt P30874); assay: SSTR receptor binding affinity (Ki), SSTR2; details: read-out: SSTR Specificity Ki SSTR2
Chain of SSTR2 (P30874 whole entry): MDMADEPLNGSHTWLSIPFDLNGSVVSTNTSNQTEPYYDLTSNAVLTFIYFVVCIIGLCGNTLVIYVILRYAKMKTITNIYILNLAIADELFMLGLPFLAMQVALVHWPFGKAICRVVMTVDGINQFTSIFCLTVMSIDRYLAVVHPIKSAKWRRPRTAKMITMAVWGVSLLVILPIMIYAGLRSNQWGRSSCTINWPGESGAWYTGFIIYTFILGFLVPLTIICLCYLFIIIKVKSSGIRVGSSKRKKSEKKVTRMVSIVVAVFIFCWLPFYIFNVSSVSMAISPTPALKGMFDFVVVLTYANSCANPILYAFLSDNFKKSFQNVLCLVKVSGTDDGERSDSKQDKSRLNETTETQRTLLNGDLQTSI

[3] = molecular target: SSTR1 (Homo sapiens, UniProt P30872); assay: SSTR receptor binding affinity (Ki), SSTR1; details: read-out: SSTR Specificity Ki SSTR1
Chain of SSTR1 (P30872 whole entry): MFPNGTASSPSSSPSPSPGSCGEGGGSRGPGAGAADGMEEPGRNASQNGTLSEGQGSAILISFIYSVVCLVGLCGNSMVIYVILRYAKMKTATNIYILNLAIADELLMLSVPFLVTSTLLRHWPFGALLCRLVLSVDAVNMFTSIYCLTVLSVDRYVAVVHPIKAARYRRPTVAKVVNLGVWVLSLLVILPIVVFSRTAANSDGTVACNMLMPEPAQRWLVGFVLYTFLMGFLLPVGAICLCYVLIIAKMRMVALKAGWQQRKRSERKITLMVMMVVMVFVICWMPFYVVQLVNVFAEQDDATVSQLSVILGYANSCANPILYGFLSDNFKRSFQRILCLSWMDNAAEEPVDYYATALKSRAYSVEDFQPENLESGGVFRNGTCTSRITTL

[4] = molecular target: SSTR4 (Homo sapiens, UniProt P31391); assay: SSTR receptor binding affinity (Ki), SSTR4; details: read-out: SSTR Specificity Ki SSTR4
Chain of SSTR4 (P31391 whole entry): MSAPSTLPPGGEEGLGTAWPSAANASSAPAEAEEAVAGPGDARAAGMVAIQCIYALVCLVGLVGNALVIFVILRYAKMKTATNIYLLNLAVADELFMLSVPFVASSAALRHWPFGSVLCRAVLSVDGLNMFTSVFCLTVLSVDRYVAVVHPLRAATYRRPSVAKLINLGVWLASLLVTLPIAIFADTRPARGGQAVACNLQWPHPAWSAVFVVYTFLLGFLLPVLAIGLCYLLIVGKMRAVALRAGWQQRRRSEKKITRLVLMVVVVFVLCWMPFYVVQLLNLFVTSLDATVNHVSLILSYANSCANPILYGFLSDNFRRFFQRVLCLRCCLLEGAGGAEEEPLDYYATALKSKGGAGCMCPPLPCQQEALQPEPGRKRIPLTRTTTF

[5] = test system: medullary thyroid carcinoma primary cultures; assay: Calcitonin secretion by MTC primary cultures (IRMA); format: cell-based, human; details: 10^−8 M, six hours
Protocol: Primary cultured cells from 18 selected MTC samples were incubated in ninety six well plates for six hours with each SSTR agonist at 10^−8 M. Control cells were treated with vehicle solution. Calcitonin levels in the conditioned medium were measured by immunoradiometric assay (IRMA) among eight replicates in the conditioned medium from treated and untreated (control) primary cultured cells. […] Data are expressed as the mean±SE percent hormone secretion inhibition vs. untreated control cells. *P<0.05 and **P<0.01 vs. control.
(§1) Tissue samples were surgically removed in accordance with the guidelines of the local comnmittees on human research. Thyroid tissue samples were obtained under sterile conditions and immediately minced in RPMI 1640 tissue culture medium. Tissues were incubated with 0.25% trypsin overnight at 4° C. and then dissociated using 0.35% collagenase (Sigma, Milano, ITALY) and 1% trypsin at 37° C. for sixty minutes. Cell suspensions were filtered through double layers of gaus(e and washed twice with serum-free F-12 Ham's Nutrient Modified Medium (F-12; Euroclone Ltd, Wetherby, UNITED KINGDOM). Tumor cells were re-suspended in F-12 with 10% fetal bovine serum and antibiotics, seeded in ninety-six well culture plates (˜2×10^4 cells/well) and incubated at 37° C. in a humidified atmosphere of 5% CO2 and 95% air according to known procedures (Zatelli, M. C. et al., Endocrinology, 2005, 146:2692-8). Approximately twenty-four hours later, the prepared cells were treated with the selected somatostatin agonist and were monitored for hormone secretion and overall viability. Informed consent of the patients was obtained for disclosing clinical investigation and performing the in vitro study.
Calcitonin levels were measured in a conditioned medium from treated and untreated primary cultured cells with the calcitonin-U.S.-IRMA® kit (Biosource Europe, Nivelles, BELGIUM) after a six hour treatment with […] of the selected somatostatin analogs. The intra- and inter-assay variation coefficients were 1.9-2.7% and 1.9-3.3%, respectively. The detection limit was 0.8 pg/ml. Hormone assays were performed in duplicate of conditioned medium from treated cells. Results were obtained by determining the mean value among eight replicates.
In order to investigate the effects of somatostatin analogs on hormone secretion, calcitonin and CgA levels were measured in conditioned media collected from primary cultures derived from the selected eighteen medullary thyroid carcinoma treated with or without each somatostatin analog at 10^−8M for six hours.
According to this criterion, […] as “responders” (group A: primary cultures #3, #5, #6, #7, #11, #12, #13, #14, #15, #16) and nine as “non responders” (group B: primary cultures #1, #2, #4, #8, #9, #10, #17, #18).

[6] = test system: medullary thyroid carcinoma primary cultures; assay: Cell viability of MTC primary cultures (MTT); format: cell-based, human; details: 10^−8 M, forty-eight hours; for cell viability, change vs. control (signed, negative = reduced): group B (lanreotide non-responsive) mean
Protocol: Primary cultured cells from 18 selected MTC samples were incubated in ninety six well plates for forty eight hours with each SSTR agonist at 10^−8 M. Control cells were treated with vehicle solution. Cell viability was measured by a colorimetric method among eight replicates from treated and untreated (control) primary cultured cells. […] Data are expressed as the mean±SE percent cell viability reduction vs. untreated control cells. *P<0.05, and **P<0.01 vs. control.
as §1
The effects of the tested somatostatin analogs on medullary thyroid carcinoma primary culture cell viability were assessed with a Cell Proliferation Kit I MTT® (Roche Diagnostics GmbH, Mannheim, GERMANY) which employs a colorimetric method for determining the number of viable cells in proliferation assays. Primary cultured cells were plated in ninety-six multiwell plates (2×10^4 cells/well) and incubated for forty-eight hours in a medium supplemented with 10% fetal bovine serum in the presence or absence of each somatostatin analog at 10^−8M. Treatments were renewed after the first twenty-four hours of incubation.
In order to investigate the effects of somatostatin analogs on medullary thyroid carcinoma cell viability, an MTT assay was performed in primary cultures derived from the eighteen selected medullary thyroid carcinoma samples, treated with or without each somatostatin analog at […] for forty-eight hours. Percent cell viability reduction compared to a control in each primary culture under treatment with each somatostatin analog is reported in Table 6.

[7] = molecular target: SSTR3 (Homo sapiens, UniProt P32745); assay: SSTR receptor binding affinity (Ki), SSTR3; details: read-out: SSTR Specificity Ki SSTR3
Chain of SSTR3 (P32745 whole entry): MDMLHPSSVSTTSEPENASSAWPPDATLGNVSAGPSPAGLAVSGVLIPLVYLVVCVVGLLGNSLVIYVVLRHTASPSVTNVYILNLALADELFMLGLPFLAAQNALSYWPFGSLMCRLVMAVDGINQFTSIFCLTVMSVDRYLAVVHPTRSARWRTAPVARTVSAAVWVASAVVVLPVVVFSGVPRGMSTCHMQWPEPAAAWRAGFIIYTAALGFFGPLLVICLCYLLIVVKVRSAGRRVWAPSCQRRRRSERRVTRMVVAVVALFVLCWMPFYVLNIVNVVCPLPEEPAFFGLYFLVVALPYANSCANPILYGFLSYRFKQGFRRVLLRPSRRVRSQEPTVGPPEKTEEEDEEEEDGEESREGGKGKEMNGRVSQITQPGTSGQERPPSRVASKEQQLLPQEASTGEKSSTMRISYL

[8] = MTC primary culture #1 (non responder)
[9] = MTC primary culture #2 (non responder)
[10] = MTC primary culture #3 (responder)
[11] = MTC primary culture #4 (non responder)
[12] = MTC primary culture #5 (responder)
[13] = MTC primary culture #6 (responder)
[14] = MTC primary culture #7 (responder)
[15] = MTC primary culture #8 (non responder)
[16] = MTC primary culture #9 (non responder)
[17] = MTC primary culture #10 (non responder)
[18] = MTC primary culture #11 (responder)
[19] = MTC primary culture #12 (responder)
[20] = MTC primary culture #13 (responder)
[21] = MTC primary culture #14 (responder)
[22] = MTC primary culture #15 (responder)
[23] = MTC primary culture #16 (responder)
[24] = MTC primary culture #17 (non responder)
[25] = MTC primary culture #18 (non responder)
[26] = group A (lanreotide responsive) mean

Compound: C[C@@H](O)[C@@H]1NC(=O)[C@H](CCCCN)NC(=O)[C@@H](Cc2c[nH]c3ccccc23)NC(=O)[C@H](Cc2ccccc2)NC(=O)[C@@H](NC(=O)[C@H](N)Cc2ccccc2)CSSC[C@@H](C(=O)N[C@H](CO)[C@@H](C)O)NC1=O [octreotide]
- suppressing calcitonin secretion [1]: lack of efficacy
- reducing tumour size and/or increasing patient survival rate [1]: little effect

Compound: CC(C)[C@@H]1NC(=O)[C@H](CCCCN)NC(=O)[C@@H](Cc2c[nH]c3ccccc23)NC(=O)[C@H](Cc2ccc(O)c(I)c2)NC(=O)[C@@H](NC(=O)[C@H](N)Cc2ccccc2)CSSC[C@@H](C(=O)N[C@H](C(N)=O)[C@@H](C)O)NC1=O [Cmpd #4, D-Phe-[Cys-Tyr(I)-D-Trp-Lys-Val-Cys]-Thr-NH2]
- Ki [2]: 0.29 nM
- Ki [3]: 1020 nM
- Ki [4]: > 1 µM
- % CT secretion inhibition vs. control [5, 8]: −10.5%
- % CT secretion inhibition vs. control [5, 9]: 5.2%
- % CT secretion inhibition vs. control [5, 10]: −33.9%
- % CT secretion inhibition vs. control [5, 11]: −10.3%
- % CT secretion inhibition vs. control [5, 12]: −15.7%
- % CT secretion inhibition vs. control [5, 13]: −12.6%
- % CT secretion inhibition vs. control [5, 14]: −42.6%
- % CT secretion inhibition vs. control [5, 15]: 3.6%
- % CT secretion inhibition vs. control [5, 16]: −5.2%
- % CT secretion inhibition vs. control [5, 17]: 12.8%
- % CT secretion inhibition vs. control [5, 18]: −15.7%
- % CT secretion inhibition vs. control [5, 19]: −18.5%
- % CT secretion inhibition vs. control [5, 20]: −42.8%
- % CT secretion inhibition vs. control [5, 21]: 8.4%
- % CT secretion inhibition vs. control [5, 22]: −30.6%
- % CT secretion inhibition vs. control [5, 23]: −16.2%
- % CT secretion inhibition vs. control [5, 24]: 12.7%
- % CT secretion inhibition vs. control [5, 25]: 5.3%
- calcitonin secretion, change vs. control (signed, negative = reduced) [5, 26]: −25%
- calcitonin secretion, change vs. control (signed, negative = reduced) ([5]; group B (lanreotide non-responsive) mean): not reduced
- % cell viability reduction vs. control [6, 8]: −14.7%
- % cell viability reduction vs. control [6, 9]: −38.3%
- % cell viability reduction vs. control [6, 10]: 13.3%
- % cell viability reduction vs. control [6, 11]: −11.3%
- % cell viability reduction vs. control [6, 12]: 24.7%
- % cell viability reduction vs. control [6, 13]: −10.8%
- % cell viability reduction vs. control [6, 14]: 5.7%
- % cell viability reduction vs. control [6, 15]: −20.6%
- % cell viability reduction vs. control [6, 16]: −32.1%
- % cell viability reduction vs. control [6, 17]: 6.5%
- % cell viability reduction vs. control [6, 18]: 1.4%
- % cell viability reduction vs. control [6, 19]: 7.4%
- % cell viability reduction vs. control [6, 20]: 9.3%
- % cell viability reduction vs. control [6, 21]: 1.3%
- % cell viability reduction vs. control [6, 22]: 12.6%
- % cell viability reduction vs. control [6, 23]: 15.0%
- % cell viability reduction vs. control [6, 24]: −2.6%
- % cell viability reduction vs. control [6, 25]: −7.7%
- cell viability, change vs. control (signed, negative = reduced) [6]: −13%
- Ki [7]: 133 nM

Compound: CC(C)[C@@H]1NC(=O)[C@H](CCCCN)NC(=O)[C@@H](Cc2c[nH]c3ccccc23)NC(=O)[C@H](Cc2ccc(O)cc2)NC(=O)[C@@H](NC(=O)[C@H](N)Cc2ccc3ccccc3c2)CSSC[C@@H](C(=O)N[C@H](C(N)=O)[C@@H](C)O)NC1=O [lanreotide, D-β-Nal-c[Cys-Tyr-D-Trp-Lys-Val-Cys]-Thr-NH2, reference compound]
- Ki [3]: 2130 nM
- suppressing calcitonin secretion [1]: lack of efficacy
- reducing tumour size and/or increasing patient survival rate [1]: little effect
- % CT secretion inhibition vs. control [5, 8]: −5.2%
- % CT secretion inhibition vs. control [5, 9]: 21.7%
- % CT secretion inhibition vs. control [5, 10]: −22.6%
- % CT secretion inhibition vs. control [5, 11]: 34.7%
- % CT secretion inhibition vs. control [5, 12]: −19.0%
- % CT secretion inhibition vs. control [5, 13]: −18.0%
- % CT secretion inhibition vs. control [5, 14]: −44.6%
- % CT secretion inhibition vs. control [5, 15]: 14.7%
- % CT secretion inhibition vs. control [5, 16]: 9.8%
- % CT secretion inhibition vs. control [5, 17]: 22.9%
- % CT secretion inhibition vs. control [5, 18]: −25.1%
- % CT secretion inhibition vs. control [5, 19]: −20.6%
- % CT secretion inhibition vs. control [5, 20]: −42.5%
- % CT secretion inhibition vs. control [5, 21]: −19.8%
- % CT secretion inhibition vs. control [5, 22]: −20.9%
- % CT secretion inhibition vs. control [5, 23]: −34.3%
- % CT secretion inhibition vs. control [5, 24]: 8.5%
- % CT secretion inhibition vs. control [5, 25]: −10.8%
- calcitonin secretion reduced / inhibited by ([5]; group A (lanreotide responders) mean): 27%
- calcitonin secretion, change vs. control (signed, negative = reduced) [5, 26]: −27%
- % cell viability reduction vs. control [6, 8]: −6.1%
- % cell viability reduction vs. control [6, 9]: −57.0%
- % cell viability reduction vs. control [6, 10]: 1.5%
- % cell viability reduction vs. control [6, 11]: −25.8%
- % cell viability reduction vs. control [6, 12]: 13.4%
- % cell viability reduction vs. control [6, 13]: 9.7%
- % cell viability reduction vs. control [6, 14]: 54.4%
- % cell viability reduction vs. control [6, 15]: −7.9%
- % cell viability reduction vs. control [6, 16]: −8.6%
- % cell viability reduction vs. control [6, 17]: 7.0%
- % cell viability reduction vs. control [6, 18]: −11.2%
- % cell viability reduction vs. control [6, 19]: 3.5%
- % cell viability reduction vs. control [6, 20]: 23.1%
- % cell viability reduction vs. control [6, 21]: 1.8%
- % cell viability reduction vs. control [6, 22]: −8.3%
- % cell viability reduction vs. control [6, 23]: −15.8%
- % cell viability reduction vs. control [6, 24]: −9.7%
- % cell viability reduction vs. control [6, 25]: −15.8%
- cell viability, change vs. control (signed, negative = reduced) [6]: −14%
- Ki [7]: 98 nM

Compound: CC[C@@H]1NC(=O)[C@H](CCCCN)NC(=O)[C@@H](Cc2c[nH]c3ccccc23)NC(=O)[C@H](Cc2ccc(O)cc2)NC(=O)[C@@H](NC(=O)[C@@H](Cc2ccccc2)NC(=O)CN2CCN(CCO)CC2)CSSC[C@@H](C(=O)N[C@H](C(N)=O)[C@@H](C)O)NC1=O [4-(2-Hydroxyethyl)-1-piperazinylacetyl-D-Phe-c[Cys-Tyr-D-Trp-Lys-Abu-Cys]-Thr-NH2]
- Ki [3]: 4520 nM
- Ki [4]: 6.36 µM
